From patent publication US20240376084A1, “INHIBITORS OF ALPHA-HEMOLYSIN OF STAPHYLOCOCCUS AUREUS” (Helmholtz-Zentrum Fur Infektionsforschung GmbH, priority 2021, published 2024)

Key:
[1] = biological target: hemolysin alpha from Staphylococcus aureus (Staphylococcus aureus, UniProt P09616); test: cell-based
[2] = biological target: S. aureus Alpha hemolysin (Staphylococcus aureus, UniProt P09616); test: cell-based; details: A549-LDH Assay activity
Chain of S. aureus Alpha hemolysin (P09616 27-319 limits assumed): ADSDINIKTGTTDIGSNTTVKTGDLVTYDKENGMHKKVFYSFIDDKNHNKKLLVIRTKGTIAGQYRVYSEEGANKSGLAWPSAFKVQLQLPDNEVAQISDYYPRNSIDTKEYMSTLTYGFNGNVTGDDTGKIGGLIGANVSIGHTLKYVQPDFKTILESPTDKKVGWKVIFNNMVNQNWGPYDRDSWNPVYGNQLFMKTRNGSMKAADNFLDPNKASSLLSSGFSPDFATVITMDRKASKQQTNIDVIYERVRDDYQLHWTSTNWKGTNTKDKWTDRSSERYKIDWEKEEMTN

Chain of hemolysin alpha from Staphylococcus aureus (P09616 27-319 limits assumed): as above

| SMILES | IC50 [1] [nM] | EC50 [2] [nM] | EC50 [1] [nM] |
| --- | --- | --- | --- |
| Cc1cc2[nH]c(=O)c(=O)[nH]c2c(F)c1S(=O)(=O)Nc1ccc(Br)c(Cl)c1 [Compound 63, N-(4-bromo-3-chlorophenyl)-5-fluoro-7-methyl-2,3-dioxo-1,2,3,4-tetrahydroquinoxaline-6-sulfonamide] | 30 to 100 | 1000 to 6000 |  |
| Cc1cc2[nH]c(=O)c(=O)[nH]c2cc1S(=O)(=O)Nc1ccc(-c2ccc3cc[nH]c3c2)c(C(F)(F)F)c1 [Compound 369, N-[4-(1H-indol-6-yl)-3-(trifluoromethyl)phenyl]-7-methyl-2,3-dioxo-1,4-dihydroquinoxaline-6-sulfonamide] |  | 30 to 100 | < 30 |
| O=c1[nH]c2cc(Cl)c(S(=O)(=O)Nc3ccc(-c4ccc(F)c(Cl)c4)c(Cl)c3)cc2[nH]c1=O [Compound 19, 7-chloro-N-(2,3′-dichloro-4′-fluoro-[1,1′-biphenyl]-4-yl)-2,3-dioxo-1,2,3,4-tetrahydroquinoxaline-6-sulfonamide] | < 30 | 100 to 1000 |  |
| Cc1cc(C2CC2)ccc1NS(=O)(=O)c1cc2[nH]c(=O)c(=O)[nH]c2cc1C [Compound 110, N-(4-cyclopropyl-2-methylphenyl)-7-methyl-2,3-dioxo-1,2,3,4-tetrahydroquinoxaline-6-sulfonamide] | 100 to 1000 | 30 to 100 |  |
| Cc1cc2[nH]c(=O)c(=O)[nH]c2cc1S(=O)(=O)Nc1ccc(-c2cc(F)ccc2F)c(Cl)c1 [Compound 295, N-[3-chloro-4-(2,5-difluorophenyl)phenyl]-7-methyl-2,3-dioxo-1,4-dihydroquinoxaline-6-sulfonamide] |  | 100 to 1000 | 30 to 100 |
| Cc1cc2[nH]c(=O)c(=O)[nH]c2cc1S(=O)(=O)Nc1ccc(-c2ccc3nc[nH]c3c2)c(Cl)c1 [Compound 359, N-[4-(3H-benzimidazol-5-yl)-3-chloro-phenyl]-7-methyl-2,3-dioxo-1,4-dihydroquinoxaline-6-sulfonamide] |  | 30 to 100 | 100 to 1000 |
| COc1cc2[nH]c(=O)c(=O)[nH]c2cc1S(=O)(=O)Nc1ccc(C(F)(F)F)cc1 [Compound 400, 7-methoxy-2,3-dioxo-N-[4-(trifluoromethyl)phenyl]-1,4-dihydroquinoxaline-6-sulfonamide] |  | 100 to 1000 | 1000 to 3500 |
| Cc1cc2[nH]c(=O)c(=O)[nH]c2cc1S(=O)(=O)Nc1ccc(C(F)(F)F)c(Cl)c1 [Compound 56, N-(3-chloro-4-(trifluoromethyl)phenyl)-7-methyl-2,3-dioxo-1,2,3,4-tetrahydroquinoxaline-6-sulfonamide] | 30 to 100 | 1000 to 6000 |  |
| COc1ccc(-c2ccc(NS(=O)(=O)c3cc4[nH]c(=O)c(=O)[nH]c4cc3C)cc2Br)cc1F [Compound 302, N-[3-bromo-4-(3-fluoro-4-methoxy-phenyl)phenyl]-7-methyl-2,3-dioxo-1,4-dihydroquinoxaline-6-sulfonamide] |  | < 30 | < 30 |
| CCCc1ccc(NS(=O)(=O)c2cc3[nH]c(=O)c(=O)[nH]c3cc2C)cc1 [Compound 49, 7-methyl-2,3-dioxo-N-(4-propylphenyl)-1,2,3,4-tetrahydroquinoxaline-6-sulfonamide] | < 30 | 30 to 100 |  |
| Cc1ccc(-c2c(C)cc(NS(=O)(=O)c3cc4[nH]c(=O)c(=O)[nH]c4cc3C)cc2C)o1 [Compound 84, N-(3,5-dimethyl-4-(5-methylfuran-2-yl)phenyl)-7-methyl-2,3-dioxo-1,2,3,4-tetrahydroquinoxaline-6-sulfonamide] | 100 to 1000 | 100 to 1000 |  |
| Cc1cc2[nH]c(=O)c(=O)[nH]c2cc1S(=O)(=O)Nc1ccc(-c2cc(CO)ccc2F)c(Cl)c1 [Compound 282, N-[3-chloro-4-[2-fluoro-5-(hydroxymethyl)phenyl]phenyl]-7-methyl-2,3-dioxo-1,4-dihydroquinoxaline-6-sulfonamide] |  | 100 to 1000 | 30 to 100 |
